Structures can show the parent of a compound that is named as a salt.
What was measured:
Format in all cases: in vivo
heart rate [1] = experiment: Effect on heart rate in rats (anesthetized, i.v.); details: 5.0 mg/kg into jugular vein, pentobarbital-anesthetized rats
Protocol: The effect of the test substances on heart rate is tested in rats (two) with an average weight of from 250 to 300 g for each dose. The rats are anesthetized with pentobarbital (50 mg/kg i.p. and 20 mg/kg s.c.). The test substances are injected in aqueous solution into the jugular vein (0.1 ml/100 g). The blood pressure is measured using a canula tied into a carotid artery and heart rate was recorded from an ECG (II or III derivation) obtained with needle electrodes. The heart rate of the animals in the control period is between 350 and 400 beats per minute (b/min).

[2] = Toxic side effects in mice after intravenous administration; details: administered intravenously, 20 mg/kg in mice
From the text: The compounds prepared according to the invention have no toxic side effects in therapeutic doses. […] In view of their pharmacological properties the compounds according to the invention are suitable for the treatment of sinus tachycardia of various origins and for the prophylaxis and therapy of ischaemic heart diseases.

heart rate [3] = experiment: Effect on heart rate in cats (anesthetised, i.v.); details: chloralose-anesthetised cats
Protocol: The effect of the test substances on heart rate is tested on cats (seven) of both sexes with an average weight of from 2.5 to 3.5 kg for each dose. The cats are anesthetised with chloralose (80 mg/kg). The test substance is injected in aqueous solution into the vena saphena. The heart rate is recorded before and after administration of the substance using a Grass tachograph from the electrocardiogram (electrode attached to the chest wall) on a Grass polygraph.

Compound | Lowering of heart rate measured 20 minutes after administration of substance (heart rate [1]) [b/min] | toxic side effects [2] | Half life (heart rate [3]; 0.3 mg/kg i.v.) [min] | Lowering of heart rate (heart rate [3]; 0.3 mg/kg i.v.) [%] | Half life (heart rate [3]; 1.0 mg/kg i.v.) [min] | Lowering of heart rate (heart rate [3]; 1.0 mg/kg i.v.) [%]
COc1cc2c(cc1OC)CC(=O)N(CCCN(C)C1CCc3cc(OC)c(OC)cc3C1)CC2.Cl (stereo not drawn) [Substance A, 1-[7,8-Dimethoxy-1,3,4,5-tetrahydro-2H-3-benzazepin-2-on-3-yl]-3-[N-methyl-N-(6,7-dimethoxy-1,2,3,4-tetrahydronaphth-2-yl)-amino]-propane hydrochloride] | -176 | no toxic side effects apart from slight sedation | > 120 | -30 | > 120 | -58
COc1cc2c(cc1OC)CC(=O)N(CCCNC1CCc3cc(OC)c(OC)cc3C1)CC2.Cl (stereo not drawn) [Substance B, 1-[7,8-Dimethoxy-1,3,4,5-tetrahydro-2H-3-benzazepin-2-on-3-yl]-3-[N-(6,7-dimethoxy-1,2,3,4-tetrahydronaphth-2-yl)-amino]-propane hydrochloride] | -203 | no toxic side effects apart from slight sedation | – | – | > 120 | -55
COc1ccc2c(c1)CC(N(C)CCCN1CCc3cc(OC)c(OC)cc3CC1=O)CC2 (stereo not drawn) [Substance C, 1-7,8-Dimethoxy-1,3,4,5-tetrahydro-2H-3-benzazepin-2-on-3-yl]-3-[N-methyl-N-(7-methoxy-1,2,3,4-tetrahydronaphth-2-yl)-amino]-propane hydrochloride] | -184 | – | – | – | – | –
COc1ccc2c(c1)CCC(N(C)CCCN1CCc3cc(OC)c(OC)cc3CC1=O)C2.Cl (stereo not drawn) [Substance D, 1-[7,8-Dimethoxy-1,3,4,5-tetrahydro-2H-3-benzazepin-2-on-3-yl]-3-[N-methyl-N-(6-methoxy-1,2,3,4-tetrahydronaphth-2-yl)-amino]-propane hydrochloride] | -165 | – | – | – | – | –
